From the supplement of paper PMC13380429

Columns and labels:
[1] = test system: A549-ACE2 infected with SARS-CoV-2; assay: cell count relative to DMSO; higher = less toxic; details: 24 h
[2] = test system: Caco-2; assay: cell viability relative to DMSO; higher = less toxic; details: 72 h
[3] = test system: HepG2; assay: as above; details: 72 h
[4] = test system: U2OS; assay: as above; details: 72 h
[5] = test system: Vero E6; assay: as above; details: 72 h
[6] = test system: A549-ACE2 infected with SARS-CoV-2; assay: SARS-CoV-2 infection rate relative to DMSO; higher = more infection; details: 24 h
[7] = test system: A549-ACE2; assay: drug-induced phospholipidosis relative to tamoxifen; higher = more phospholipidosis
[8] = test system: A549-ACE2 infected with SARS-CoV-2; assay: morphology score (similarity to uninfected cells); higher = more like uninfected cells; details: 24 h
[9] = test system: Caco-2; assay: relative viability EC50 (midpoint between 100% and the lowest measured viability); higher = less toxic; details: 72 h
[10] = test system: HepG2; assay: as above; details: 72 h
[11] = test system: U2OS; assay: as above; details: 72 h
[12] = test system: Vero E6; assay: as above; details: 72 h
[13] = test system: Caco-2; assay: drug sensitivity score (DSS) for viability; higher = more toxic; extreme values may be limits of the assay; details: 72 h
[14] = test system: HepG2; assay: as above; details: 72 h
[15] = test system: U2OS; assay: as above; details: 72 h
[16] = test system: Vero E6; assay: as above; details: 72 h
[17] = test system: Calu-3; assay: cell viability relative to DMSO; higher = less toxic; details: 72 h
[18] = test system: A549-ACE2; assay: phospholipidosis EC50; higher = less potent phospholipidosis inducer
[19] = test system: Calu-3; assay: relative viability EC50 (midpoint between 100% and the lowest measured viability); higher = less toxic; details: 72 h
[20] = test system: Calu-3; assay: drug sensitivity score (DSS) for viability; higher = more toxic; extreme values may be limits of the assay; details: 72 h

O=C(Nc1ccc(-c2ccncc2)cc1)N[C@H](CO)c1ccccc1
Details	SARS-CoV-2 infection rate, [6] [%]	cell count, [1] [%]	cell viability, [2] [%]	cell viability, [3] [%]	cell viability, [4] [%]	cell viability, [5] [%]	morphology score, [8]
1 nM	–	–	99.4	96.7	98.6	97	–
10 nM	–	–	98.6	94.7	96.3	98.2	–
0.1 µM	98	105	–	–	–	–	0.27
100 nM	–	–	96.1	105	99.2	98	–
0.3 µM	101	112	–	–	–	–	0.23
1 µM	94	106	–	–	–	–	0.26
1000 nM	–	–	95.3	102	97.5	94.2	–
3 µM	110	91	–	–	–	–	-0.17
10000 nM	–	–	96.4	84.8	94.7	77	–

drug-induced phospholipidosis [%], [7]
Details	0.3 µM	0.833333 µM	3.33333 µM	6.66667 µM	10 µM	30 µM
24 h	3.51	2.55	2.66	3.66	1.91	3.72
48 h	2.8	0.36	-0.35	3.11	1.09	6.28
72 h	2.59	-2.02	-0.767	-0.334	-0.186	6.14

Details	drug sensitivity score	relative viability EC50 [µM]
[9]	–	> 10
[10]	–	> 10
[11]	–	> 10
[12]	–	> 10
[13]	0	–
[14]	0.2	–
[15]	0	–
[16]	1.6	–

CCOc1ccc(-c2nc(-c3cccc4c3CCC4NCCO)no2)cc1OCC (stereo unspecified) [CYM-5442]
Details	SARS-CoV-2 infection rate [%]	cell count [%]	cell viability [%]	morphology score	phospholipidosis EC50 [µM]
[1], 0.3 µM	–	100	–	–	–
[1], 3 µM	–	118	–	–	–
[1], 10 µM	–	113	–	–	–
[1], 30 µM	–	104	–	–	–
[2], 1 nM	–	–	91	–	–
[2], 10 nM	–	–	96.9	–	–
[2], 100 nM	–	–	102	–	–
[2], 1000 nM	–	–	99.2	–	–
[2], 10000 nM	–	–	71.7	–	–
[3], 1 nM	–	–	97.5	–	–
[3], 10 nM	–	–	101	–	–
[3], 100 nM	–	–	90.5	–	–
[3], 1000 nM	–	–	97.2	–	–
[3], 10000 nM	–	–	78.8	–	–
[4], 1 nM	–	–	99	–	–
[4], 10 nM	–	–	95.7	–	–
[4], 100 nM	–	–	103	–	–
[4], 1000 nM	–	–	97	–	–
[4], 10000 nM	–	–	90.5	–	–
[5], 1 nM	–	–	90.7	–	–
[5], 10 nM	–	–	102	–	–
[5], 100 nM	–	–	84.5	–	–
[5], 1000 nM	–	–	94.7	–	–
[5], 10000 nM	–	–	99.1	–	–
[6], 0.3 µM	96	–	–	–	–
[6], 3 µM	55	–	–	–	–
[6], 10 µM	13	–	–	–	–
[6], 30 µM	19	–	–	–	–
[8], 0.3 µM	–	–	–	0.19	–
[8], 3 µM	–	–	–	0.72	–
[8], 10 µM	–	–	–	0.84	–
[8], 30 µM	–	–	–	0.63	–
[17], 1 nM	–	–	94.6	–	–
[17], 10 nM	–	–	95.2	–	–
[17], 100 nM	–	–	91.2	–	–
[17], 1000 nM	–	–	104	–	–
[17], 10000 nM	–	–	92.8	–	–
[18], 24 h	–	–	–	–	2.26
[18], 48 h	–	–	–	–	3.87
[18], 72 h	–	–	–	–	4.72

drug-induced phospholipidosis [%], [7]
Details	0.3 µM	0.833333 µM	3.33333 µM	6.66667 µM	10 µM	30 µM
24 h	3.28	18.4	62.3	81.5	100	87.8
48 h	3.02	11.2	44.6	72.9	96	93.9
72 h	0.284	11.6	36.7	67.4	106	99.3

Details	drug sensitivity score	relative viability EC50 [µM]
[10]	–	> 10
[11]	–	> 10
[12]	–	> 10
[13]	1.3	–
[14]	1.1	–
[15]	0	–
[16]	0	–
[19]	–	> 10
[20]	0	–

CN(C)c1ccccc1CN1CCCN(Cc2ccccc2N(C)C)C1c1ccncc1 [GANT-61]
Details	SARS-CoV-2 infection rate [%]	cell count [%]	cell viability [%]	morphology score	phospholipidosis EC50 [µM]
[1], 0.3 µM	–	95	–	–	–
[1], 3 µM	–	110	–	–	–
[1], 10 µM	–	117	–	–	–
[1], 30 µM	–	109	–	–	–
[2], 1 nM	–	–	94.5	–	–
[2], 10 nM	–	–	99.9	–	–
[2], 100 nM	–	–	92.7	–	–
[2], 1000 nM	–	–	99	–	–
[2], 10000 nM	–	–	95.9	–	–
[3], 1 nM	–	–	100	–	–
[3], 10 nM	–	–	105	–	–
[3], 100 nM	–	–	97.5	–	–
[3], 1000 nM	–	–	95.3	–	–
[3], 10000 nM	–	–	71.1	–	–
[4], 1 nM	–	–	97.5	–	–
[4], 10 nM	–	–	94	–	–
[4], 100 nM	–	–	95.8	–	–
[4], 1000 nM	–	–	100	–	–
[4], 10000 nM	–	–	93.5	–	–
[5], 1 nM	–	–	97.7	–	–
[5], 10 nM	–	–	101	–	–
[5], 100 nM	–	–	96	–	–
[5], 1000 nM	–	–	95.6	–	–
[5], 10000 nM	–	–	95	–	–
[6], 0.3 µM	99	–	–	–	–
[6], 3 µM	64	–	–	–	–
[6], 10 µM	33	–	–	–	–
[6], 30 µM	41	–	–	–	–
[8], 0.3 µM	–	–	–	-0.11	–
[8], 3 µM	–	–	–	0.59	–
[8], 10 µM	–	–	–	0.68	–
[8], 30 µM	–	–	–	0.26	–
[17], 1 nM	–	–	111	–	–
[17], 10 nM	–	–	109	–	–
[17], 100 nM	–	–	110	–	–
[17], 1000 nM	–	–	88.2	–	–
[17], 10000 nM	–	–	47.1	–	–
[18], 24 h	–	–	–	–	3.39
[18], 48 h	–	–	–	–	4.52
[18], 72 h	–	–	–	–	6.2

drug-induced phospholipidosis [%], [7]
Details	0.3 µM	0.833333 µM	3.33333 µM	6.66667 µM	10 µM	30 µM
24 h	3.13	5.25	60.1	90.1	94.9	116
48 h	6.4	5.75	51.9	94.9	118	135
72 h	6.86	6.64	47	96.1	125	–

Details	drug sensitivity score	relative viability EC50 [µM]
[9]	–	> 10
[11]	–	> 10
[12]	–	> 10
[13]	0	–
[14]	2	–
[15]	0	–
[16]	0	–
[19]	–	1.65
[20]	4.7	–
